Experimental data from patent US7563793B2, “Pyrrolo[1,2-a]quinoxalin-5-(4H)-yl)sulfonyls and carbonyls and their use as estrogenic agents” (Wyeth, priority 2004, dated 2009).
Read-outs that look alike come from different tables or passages of the source.

Experiments:
IL-6 = IL-6 assay (ELISA) in Ad5-wt-ER infected HAECT-1 cells (IL-1β induced); format: cell-based, human; conditions: Homo sapiens; for IC50: HAECT1; for Emax: HAECT1, relative to maximal inhibition observed with E2, read-out: IL-6 Efficacy
Method: (§1) After four hours, cells were washed with EBM-BSA and incubated overnight in the same medium. […] After two hours, cells were washed and incubated at 34° C. for 1 hour. […] Control (no ER infection) cells were processed as above without Ad5-wt-hERα virus infection. […] Cells were subsequently washed with 300 μl of Dulbecco's phosphate buffered saline and lysed in 50 μl of Cell Culture Lysis Reagent (Promega). Luciferase was determined on a Wallac Victor^2 Luminometer (Gaithersburg, Md.) using 10 μl of lysate and mixing with 100 lμof Promega Luciferase Assay reagent. […] For IC50 and EC50 calculations, mean IL-6, luciferase or CK values versus log10 of the compound concentration were fitted to a four parameter logistic equation. The IC50/EC50 value, ‘Hill slope’, upper and lower limits of the curve were iteratively estimated.

creatine kinase = test: Creatine kinase assay in Ad5-wt-ER infected HAECT-1 cells; format: cell-based, human; conditions: for EC50 / Emax: Homo sapiens; for EC50: HAECT1, CK stimulation, N/O = activity not observed at concentrations tested, read-out: CK IC50; for Emax: HAECT1, relative to maximal stimulation observed with E2, read-out: CK Efficacy; for CK Efficacy: relative to maximal stimulation observed with E2
Method: as §1

ER/Nf-kB = test: ER/NF-κB luciferase reporter assay in Ad5-wt-ER infected HAECT-1 cells (IL-1β induced); format: cell-based, human; conditions: for ER/Nf-kB Efficacy: relative to maximal inhibition observed with E2
Method: as §1

SMILES | IC50 (IL-6) [nM] | EC50 (creatine kinase) [nM] | melting point | IC50 (ER/Nf-kB; Homo sapiens, HAECT1) [nM] | Emax (IL-6) [%] | Emax (creatine kinase) [%] | IC50 (ER/Nf-kB) [nM] | ER/Nf-kB Efficacy (ER/Nf-kB) [%] | CK Efficacy (creatine kinase) [%]
CC[C@H]1c2cccn2-c2c(cc(F)c(F)c2F)N1S(=O)(=O)c1ccc(O)cc1 [97 (S), 4-{[(4S)-4-ethyl-7,8,9-trifluoropyrrolo[1,2-a]quinoxalin-5(4H)-yl]sulfonyl}phenol] | 9 | 31 | 155 to 156 °C | – | 134 | 37 | – | – | –
CC[C@H]1c2ccc(C#N)n2-c2cc(F)c(F)cc2N1S(=O)(=O)c1ccc(O)cc1 [101 (S), (4S)-4-ethyl-7,8-difluoro-5-[(4-hydroxyphenyl)sulfonyl]-4,5-dihydropyrrolo[1,2-a]quinoxaline-1-carbonitrile] | 424 | 91 | 191 to 192 °C | – | 131 | 30 | – | – | –
CC[C@@H]1c2cccn2-c2cc(F)c(F)cc2N1S(=O)(=O)c1ccc(O)c(C)c1 [102 (R), 4-{[(4R)-4-ethyl-7,8-difluoropyrrolo[1,2-a]quinoxalin-5(4H)-yl]sulfonyl}-2-methylphenol] | 448 | 1770 | 160 to 162 °C | – | 117 | 31 | – | – | –
CC[C@H]1c2cccn2-c2cc(F)c(F)cc2N1S(=O)(=O)c1ccc(O)c(C)c1 [102 (S), 4-{[(4S)-4-ethyl-7,8-difluoropyrrolo[1,2-a]quinoxalin-5(4H)-yl]sulfonyl}-2-methylphenol] | 8.4 | – | 161 to 163 °C | – | 161 | – | – | – | –
C[C@@H]1c2cccn2-c2ccc(F)cc2N1C(=O)c1ccc(O)cc1 [123 (R), 4-{[(4R)-7-fluoro-4-methylpyrrolo[1,2-a]quinoxalin-5(4H)-yl]carbonyl}phenol] | 23 | 198 | 125 to 129 °C | – | 112 | 27 | – | – | –
CC[C@@H]1c2cccn2-c2ccc(Cl)cc2N1C(=O)c1ccc(O)cc1O [125 (R), 4-{[(4R)-7-chloro-4-ethylpyrrolo[1,2-a]quinoxalin-5(4H)-yl]carbonyl}benzene-1,3-diol] | 0.4 | – | 213 to 214 °C | – | 120 | – | – | – | –
CC[C@@H]1c2cccn2-c2ccc(F)cc2N1C(=O)c1cccc(O)c1 [127 (R), 3-{[(4R)-4-ethyl-7-fluoropyrrolo[1,2-a]quinoxalin-5(4H)-yl]carbonyl}phenol] | 62 | 159 | 115 to 116 °C | – | 132 | 35 | – | – | –
CCC1c2ccc(C=O)n2-c2ccc(F)cc2N1S(=O)(=O)c1ccc(O)c(C)c1 (stereo not drawn) [Example 25, 4-ethyl-7-fluoro-5-[(4-hydroxy-3-methylphenyl)sulfonyl]-4,5-dihydropyrrolo[1,2-a]quinoxaline-1-carboxaldehyde] | – | – | 192 to 194 °C | – | – | – | – | – | –
CCC1c2ccc(C(N)=O)n2-c2ccc(F)cc2N1S(=O)(=O)c1ccc(O)cc1 (stereo not drawn) [Example 36, 4-ethyl-7-fluoro-5-[(4-hydroxyphenyl)sulfonyl]-4,5-dihydropyrrolo[1,2-a]quinoxaline-1-carboxamide] | – | – | 168 to 170 °C (dec.) | – | – | – | – | – | –
CCOC(=O)Oc1ccc(S(=O)(=O)N2c3ccc(Cl)cc3-n3cccc3C2CC)cc1 (stereo not drawn) [Example 70, 4-[(8-chloro-4-ethylpyrrolo[1,2-a]quinoxalin-5-(4H)-yl)sulfonyl]phenyl ethyl carbonate] | – | – | – | – | – | – | 150 | 98 | 45
CCC1c2cccn2-c2cc(Cl)ccc2N1S(=O)(=O)c1ccc(O)cc1 (stereo not drawn) [Example 71, 4-[(8-chloro-4-ethylpyrrolo[1,2-a]quinoxalin-5-(4H)-yl)sulfonyl]phenol] | – | – | – | – | – | – | 175 | 101 | 34
CCC1c2cccn2-c2cc(OC)c(F)cc2N1S(=O)(=O)c1ccc(O)cc1 (stereo not drawn) [Example 75, 4-[(4-ethyl-7-fluoro-8-methoxypyrrolo[1,2-a]quinoxalin-5-(4H)-yl)sulfonyl]phenol] | – | – | – | – | – | – | 36 | 84 | 46
CC[C@@H]1c2cccn2-c2ccc(Br)cc2N1S(=O)(=O)c1ccc(O)cc1 [Example 78, 4-{[(4R)-7-bromo-4-ethylpyrrolo[1,2-a]quinoxalin-5(4H)-yl]sulfonyl}phenol] | 1100 | – | 187 to 189 °C | – | 40 | – | – | – | –
CCC1c2ccc(C#N)n2-c2ccc(Br)cc2N1S(=O)(=O)c1ccc(O)cc1 (stereo not drawn) [Example 80, 7-bromo-4-ethyl-5-[(4-hydroxyphenyl)sulfonyl]-4,5-dihydropyrrolo[1,2-a]quinoxaline-1-carbonitrile] | 444 | – | 190 to 192 °C | – | 103 | – | – | – | –

Continued, in another order:

IC50 (IL-6) [nM] | EC50 (creatine kinase) [nM] | melting point | IC50 (ER/Nf-kB; Homo sapiens, HAECT1) [nM] | SMILES | Emax (IL-6) [%] | Emax (creatine kinase) [%] | IC50 (ER/Nf-kB) [nM] | ER/Nf-kB Efficacy (ER/Nf-kB) [%] | CK Efficacy (creatine kinase) [%]
51 | – | 176 to 178 °C | – | CCC1c2cccn2-c2ccc(Br)cc2N1S(=O)(=O)c1cccc(O)c1 (stereo not drawn) [Example 82, 3-[(7-bromo-4-ethylpyrrolo[1,2-a]quinoxalin-5(4H)-yl)sulfonyl]phenol] | 114 | – | – | – | –
696 | – | 179 to 182 °C | – | CCC1c2ccc(C#N)n2-c2cc(F)c(F)cc2N1S(=O)(=O)c1cccc(O)c1 (stereo not drawn) [Example 85, 4-ethyl-7,8-difluoro-5-[(3-hydroxyphenyl)sulfonyl]-4,5-dihydropyrrolo[1,2-a]quinoxaline-1-carbonitrile] | 112 | – | – | – | –
41 | 205 | 153 to 154 °C | – | CCC1c2cccn2-c2ccc(F)cc2N1S(=O)(=O)c1cccc(O)c1 (stereo not drawn) [Example 87, 3-[(4-ethyl-7-fluoropyrrolo[1,2-a]quinoxalin-5(4H)-yl)sulfonyl]phenol] | 112 | 33 | – | – | –
150 | 9.9 | 189 to 191 °C | – | CC[C@H]1c2ccc(C#N)n2-c2ccc(Br)cc2N1S(=O)(=O)c1ccc(O)cc1 [Example 89, (4S)-7-bromo-4-ethyl-5-[(4-hydroxyphenyl)sulfonyl]-4,5-dihydropyrrolo[1,2-a]quinoxaline-1-carbonitrile] | 188 | 7 | – | – | –
1460 | – | 182 to 185 °C | – | CC[C@@H]1c2ccc(C#N)n2-c2ccc(Br)cc2N1S(=O)(=O)c1ccc(O)cc1 [Example 91, (4R)-7-bromo-4-ethyl-5-[(4-hydroxyphenyl)sulfonyl]-4,5-dihydropyrrolo[1,2-a]quinoxaline-1-carbonitrile] | 86 | -4 | – | – | –
299 | – | 205 °C | – | CCC1c2ccc(C#N)n2-c2cc(F)c(F)cc2N1S(=O)(=O)c1ccc(O)cc1 (stereo not drawn) [Example 93, 4-ethyl-7,8-difluoro-5-[(4-hydroxyphenyl)sulfonyl]-4,5-dihydropyrrolo[1,2-a]quinoxaline-1-carbonitrile] | 105 | – | – | – | –
92 | – | 175 to 176 °C | – | CCC1c2cccn2-c2c(cc(F)c(F)c2F)N1S(=O)(=O)c1ccc(O)cc1 (stereo not drawn) [Example 98, 4-[(4-ethyl-7,8,9-trifluoropyrrolo[1,2-a]quinoxalin-5(4H)-yl)sulfonyl]phenol] | 117 | – | – | – | –
14 | 99 | 143 to 145 °C | – | CCC1c2cccn2-c2c(cc(F)c(F)c2F)N1S(=O)(=O)c1cccc(O)c1 (stereo not drawn) [Example 100, 3-[(4-ethyl-7,8,9-trifluoropyrrolo[1,2-a]quinoxalin-5(4H)-yl)sulfonyl]phenol] | 193 | 42 | – | – | –
– | – | 194 to 195 °C | – | CC[C@@H]1c2ccc(C#N)n2-c2cc(F)c(F)cc2N1S(=O)(=O)c1ccc(O)cc1 [Example 101 (R), (4R)-4-ethyl-7,8-difluoro-5-[(4-hydroxyphenyl)sulfonyl]-4,5-dihydropyrrolo[1,2-a]quinoxaline-1-carbonitrile] | – | – | – | – | –
178 | – | 196 to 201 °C | – | CC[C@H]1c2ccc(C#N)n2-c2cc(F)c(F)cc2N1S(=O)(=O)c1ccc(OS(N)(=O)=O)cc1 [Example 104, 4-{[(4S)-1-cyano-4-ethyl-7,8-difluoropyrrolo[1,2-a]quinoxalin-5(4H)-yl]sulfonyl}phenyl sulfamate] | 110 | – | – | – | –
– | – | 153 to 155 °C | – | CCC1c2cccn2-c2ccc(F)cc2N1C(=O)c1ccc(O)cc1O (stereo not drawn) [Example 120, 4-[(4-ethyl-7-fluoropyrrolo[1,2-a]quinoxalin-5(4H)-yl)carbonyl]benzene-1,3-diol] | – | – | – | – | –
– | – | 198 to 201 °C | – | CCC1c2cccn2-c2ccc(Cl)cc2N1C(=O)c1ccc(O)cc1O (stereo not drawn) [Example 124, 4-[(7-chloro-4-ethylpyrrolo[1,2-a]quinoxalin-5(4H)-yl)carbonyl]benzene-1,3-diol] | – | – | – | – | –
– | – | 115 to 117 °C | – | CCC1c2cccn2-c2ccc(F)cc2N1C(=O)c1cccc(O)c1 (stereo not drawn) [Example 126, 3-[(4-ethyl-7-fluoropyrrolo[1,2-a]quinoxalin-5(4H)-yl)carbonyl]phenol] | – | – | – | – | –
– | 5.8 | – | 1.7 | C[C@]12CC[C@@H]3c4ccc(O)cc4CC[C@H]3[C@@H]1CC[C@@H]2O [Example E2, 17β-estradiol, reference compound] | – | 100 | – | 100 | –
